“And” between values parts separate entries of the source, which are not always exact repeats. Identical values can stand only once.
Key:
HCV RNA polymerase NS5B [1] = target: T1, HCV RNA polymerase NS5B (Hepatitis C virus genotype 1b, UniProt P26663); assay: Ligand-observed MS secondary screen of 7 subdivided fragment cocktails; assay type: binding; conditions: 7 cocktails of 50 or 84 fragments; two replicates separated by a slash; S/N > 10 positive; ND: not detected by MS analysis
T1 construct: NS5B with a C-terminal 10-His tag was expressed in E. coli; 10-His (C); made in house; host or cells: E. coli
T1 sequence (P26663 2420-3010): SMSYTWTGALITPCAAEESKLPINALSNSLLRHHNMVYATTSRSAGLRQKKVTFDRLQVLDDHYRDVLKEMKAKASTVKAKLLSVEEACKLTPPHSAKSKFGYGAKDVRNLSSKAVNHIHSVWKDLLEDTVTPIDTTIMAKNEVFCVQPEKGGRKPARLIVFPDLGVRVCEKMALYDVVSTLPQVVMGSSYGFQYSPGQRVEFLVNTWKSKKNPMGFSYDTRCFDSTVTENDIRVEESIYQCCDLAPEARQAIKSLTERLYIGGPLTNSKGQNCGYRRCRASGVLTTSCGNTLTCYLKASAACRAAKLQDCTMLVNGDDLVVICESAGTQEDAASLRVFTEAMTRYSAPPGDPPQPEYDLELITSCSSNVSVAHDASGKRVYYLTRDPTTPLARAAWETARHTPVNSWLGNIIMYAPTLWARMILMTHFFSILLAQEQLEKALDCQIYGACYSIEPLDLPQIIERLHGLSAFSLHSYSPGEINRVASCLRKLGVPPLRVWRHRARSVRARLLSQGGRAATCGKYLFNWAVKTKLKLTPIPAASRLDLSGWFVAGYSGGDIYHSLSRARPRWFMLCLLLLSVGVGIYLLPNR
Protocol: To reduce possible false-positives from the primary screen, the library was divided to 7 cocktails among which six consist of 50 fragments and the last one of 84 fragments. Individual cocktails were incubated with NS5B protein prior to protein complex isolation and ligand-observed MS analysis, resulting in a total of 12 positive hits after screening the seven cocktails (Figure 1C). […] Thus the confidence in hit identification was enhanced by selecting hits repetitively found from the two screens against cocktails of different diversity. It is noteworthy that the preliminary hits missed in the secondary screen might be due to either nonspecific binding or co-operative binding that only occurred when the entire library was incubated with the target. Apart from the 12 hits, 25 fragments with S/N < 10 from the secondary screen were regarded non-binders and discarded.
(§1) In the primary screening, a mixture of 384 fragments (each at a final concentration of 25 μM) and NS5B at 50 μM was prepared in the binding buffer of 20 mM MES (pH 6.5), 300 mM NaCl and 10% glycerol, and incubated for 40 min at 25°C. All fragments of the library were either purchased from Sigma or synthesized in our laboratory, and their structural diversity was summarized in Figure S4. The mixture was then filtered through an ultrafiltration membrane (50 KD MW cut-off) by centrifugation at 13000 g for 10 min at […]. The protein complexes bound with different fragments were washed twice with 10 mM ammonium acetate (pH 6.5) followed by centrifugation to remove the unbound fragments. The resulting solution of the complexes was transferred to a new centrifugal tube, and the ligands were dissociated from NS5B with 90% methanol in deionized water. The released ligands were then separated from the denatured protein by centrifugation at 13000 g for 10 min at 20°C. The supernatant containing the ligands was evaporated by a speed vacuum, reconstituted in 80% methanol, and analyzed by LC/MS. The protein-free control was prepared by using the binding buffer substitute for NS5B during incubation and it underwent the same process as the NS5B incubated sample. In the secondary screen, 384 fragments were divided into 7 cocktails, each consisting of 50 fragments except for the seventh cocktail of 84 fragments. Each cocktail was then incubated with NS5B in the binding buffer at the same final concentration as in the primary screen. […] Ultrafiltration and complex dissociation were performed as described earlier to obtain fragment ligands. Samples were all prepared in duplicate and analyzed separately.
Aliquots of reconstituted ultrafiltrates were analyzed on a Waters Synapt G1 high-dfinition mass spectrometer (Milford, MA) equipped with a Waters Acquity UPLC system. UPLC separation was carried out on a Waters Acquity BEH C18 column (2.1 mm × 50 mm, 1.7 μm) at a flow rate of 200 μL/min, with the mobile phases of water/0.1% formic acid (A) and acetonitrile/0.1% formic acid (B). In the primary screen, the LC gradient was as follows: 0–15 min, 2–50% B; 15–17 min, 50%–90% B; 17–20 min, 90% B. In the secondary screen and the validation assay, the first fraction of gradient (2–50% B) was shortened to 6 min. The regular ESI ion source operated in both positive- and negative-ion modes. Mass spectra were acquired within a mass range from 100 to 800 m/z, with capillary voltage 3.0 kV in the positive mode and 2.6 kV in the negative mode, sample cone voltage 54 V (positive mode) and 45 V (negative mode), extraction cone voltage 4.7 V (positive mode) and 4.0 V (negative mode), desolvation temperature 350°C, source temperature 100°C, and desolvation gas flow 500 L/h. External calibration with a solution of sodium formate achieved mass accuracy within 10 ppm. LC/MS chromatogram extraction and peak area calculation for specific fragments were performed by use of MassLynx software (v4.1, Waters) based on accurate mass measurement of the compound with a tolerance of 0.01 Da. […]

HCV RNA polymerase NS5B [2] = target: T1, HCV RNA polymerase NS5B; assay: Ligand-observed MS primary screen of the 384-fragment mixture (ultrafiltration LC/MS); assay type: binding; conditions: for S/N in the 1st screen: 384 fragments each 25 μM, NS5B 50 μM, two experimental replicates separated by a slash, S/N > 10 indicates positive hit
Protocol: A two-stage fragment screening strategy based on the ligand-observed MS analysis was devised that involved a primary screen of 384 fragment as a whole followed by a secondary independent screen of fragment cocktails of less complexity. In the primary screen, a mixture of all 384 fragments was incubated with NS5B protein before the fragment-bound complexes were separated from excessive free fragments using ultrafiltration. […] Fragments dissociated from the target using 90% methanol in deionized water were subjected to LC-MS analysis and those showing MS intensity substantially higher than the negative control (protein-free incubation) were considered positive hits (Figure 1A). Although in our previous assay development we justified an S/N ratio of 2 to be the threshold for positive binding, here we raised the S/N threshold to 10 so as to retain the upmost strong binders given that low-affinity fragments are more inclined to nonspecific adsorption. Impressively, the high selectivity of high-resolution MS (HRMS) analysis enabled rapid screening of the 384-fragment mixture within 20-min analytical time, generating 20 preliminary hits with S/N above 10 (Figure 1B, full data sets in Table S1). It is noted that 20 compounds (5%) in this library are not amenable to our analysis, probably due to the limited sensitivity of the mass spectrometer used in this study or the intrinsically low ionization efficiency of these compounds. Nevertheless, these undetectable fragments were still included in the screening cocktail to maximize the complexity of multiple ligand interactions during incubation. To the best of our knowledge, such a high capacity in mixture screening has never been shown before for fragment libraries, and we anticipate the throughput can be easily boosted to screening >1000 fragments within half an hour using a state-of-the-art mass spectrometer.
as §1
Aliquots of reconstituted ultrafiltrates were analyzed on a Waters Synapt G1 high-dfinition mass spectrometer (Milford, MA) equipped with a Waters Acquity UPLC system. UPLC separation was carried out on a Waters Acquity BEH C18 column (2.1 mm × 50 mm, 1.7 μm) at a flow rate of 200 μL/min, with the mobile phases of water/0.1% formic acid (A) and acetonitrile/0.1% formic acid (B). […]

Row | SMILES | S/N in the 2nd screen (HCV RNA polymerase NS5B [1]) | S/N in the 1st screen (HCV RNA polymerase NS5B [2]) | Binding (HCV RNA polymerase NS5B [2]; Figure 1A workflow example) | S/N (HCV RNA polymerase NS5B [2]; Figure 1A workflow example)
1 | Oc1ccc(SC(F)(F)F)cc1 [Fragment 237] | 29.0 and 36.0 | 1027 and 1179 | – | –
2 | N#CC(c1ccccc1)N1CCOCC1 (centres unmarked) [Fragment 328] | 17.4 and 16.3 | 124.6 and 138.4 | – | –
3 | O=C(O)c1ccc(C(F)(F)F)cc1 [Fragment 204] | 22.4 and 19.8 | 13.4 and 11.6 | – | –
4 | Cc1ccc2oc(=O)ccc2c1 [Fragment 117] | 34.3 and 39.6 | 55.6 and 46.8 | – | –
5 | Cc1nc2ccccc2nc1C [Fragment 339] | 66.2 and 62.4 | 241.4 and 259.8 | – | –
6 | Cc1cc(N)n(-c2ccccc2)n1 [Fragment 131] | 23.1 and 19.4 | 45.7 and 39.3 | – | –
7 | N#CCc1ccc(O)cc1 [Fragment 114] | 103.0 and 91.0 | 17.9 and 20.9 | – | –
8 | Nc1ccc(C(F)(F)F)cn1 [Fragment 162] | 19.7 and 17.3 | 2714 and 3280 | + (Positive fragment binding is indicated by its S/N ratio > 10) | –
9 | Oc1ccc(F)c(Cl)c1 [Fragment 85] | 79.0 and 86.0 | 27.9 and 29.7 | – | –
10 | Cn1c(=O)cc(O)c2ccccc21 [Fragment 130] | 48.4 and 49.4 | 93.1 and 102.3 | + (Positive fragment binding is indicated by its S/N ratio > 10) | 93

— publication PMC4322365, “A Ligand-observed Mass Spectrometry Approach Integrated into the Fragment Based Lead Discovery Pipeline” (Scientific Reports, 2015)
